Reference: patent publication US9546158B2, “2,5-substituted pyrimidines” (Grünenthal GmbH, priority 2014, dated 2017)

Columns and labels:
[1] = target: T1, human PDE4B1 (Homo sapiens, UniProt Q07343); test: TR-FRET assay using the LANCE Ultra cAMP kit to determine the activity of hPDE4B1; type: biochemical; conditions: test substrate concentration of 10 μM, read-out: Inhibition of PDE4B, Inhibition in %
T1 construct: host or cells: Sf9 cells
Excerpt: TR-FRET Assay Using the LANCE® Ultra cAMP Kit to Determine the Activity of hPDE4B1
The effects of the compounds on the activity of the human PDE4B1 was quantified by measuring the production of 5′AMP from cAMP using a human recombinant enzyme expressed in Sf9 cells and the LANCE® Ultra cAMP kit, a TR-FRET detection method from PerkinElmer. The human PDE4B1 enzyme was purchased from SignalChem Lifesciences (Catalog #P92-31BG, Lot #H296-2).
The test compound, reference compound or water (control) was mixed with the enzyme (0.96 U) in a reaction buffer containing 50 mM Tris-HCl, 50 mM MgCl2 and 5 mM DTT (pH 8.5). Thereafter, the reaction was initiated by addition of 500 nM cAMP (substrate) and the mixture was incubated for 30 minutes at room temperature. For control basal measurements, the enzyme was omitted from the reaction mixture. After 30 minutes, the reaction was stopped and diluted by a factor of 100 with the reaction buffer supplemented with 500 μM IBMX. The fluorescence donor (europium chelate-labeled cAMP) and the fluorescence acceptor (anti-cAMP antibody labeled with the ULight™ dye) were then added together with 500 μM IBMX to a 10 μl aliquot. After 60 minutes, the fluorescence transfer corresponding to the amount of residual cAMP was measured at λex=337 nm, λem=620 nm and λem=665 nm using a microplate reader (PHERAstar, BMG). The enzyme activity was determined by dividing the signal measured at 665 nm by that measured at 620 nm (ratio) multiplied by 10000. The results were expressed as percent inhibition of the control enzyme activity. IC50 values (IC50=concentration causing a half-maximal inhibition of control specific activity) were derived from dose response measurements with ten different concentrations (n=3; N=1-3).

[2] = target: T1, human PDE4B1; test: cAMP HTRF assay to determine the activity of hPDE4B1; type: biochemical; conditions: test substrate concentration of 1 μM, read-out: Inhibition of PDE4B, Inhibition in %
Procedure: cAMP HTRF® Assay to Determine the Activity of hPDE4B1
The inhibiting effect of the compounds on the enzyme activity of human PDE4B1 was measured by the quantification of 5′-adenosine monophosphate (5′-AMP), which is formed from 3′,5′-cyclic adenosine monophosphate (cAMP). Human recombinant enzyme, expressed in Sf9 cells, and the HTRF (homogeneous time-resolved fluorescence) detection method were used in the assay.
The test compound or water (control) was mixed with the human recombinant PDE4B1 enzyme (4.8 U) in a buffer consisting of 44.4 mM tris-HCl, 5.28 mM MgCl2, 2.64 mM DTT and 0.044% Tween 20 (pH 7.8). After adding the cAMP enzyme substrate (final concentration 40 nM), the mixture was incubated for 30 minutes at room temperature. Then a fluorescence acceptor (Dye2 marked with cAMP), a fluorescence donor (anti-cAMP antibody marked with a europium cryptate) and the non-specific phosphodiesterase inhibitor IBMX (3-isobutyl-1-methylxanthine; final concentration 1 mM) were added. After 60 minutes the fluorescence transfer, which correlates with the amount of remaining cAMP, was measured with a microplate reader (Rubystar, BMG) at λex=337 nm, λem=620 nm and λem=665 nm. The enzyme activity was calculated from the quotient formed from the measured signal at 665 nm and that at 620 nm. The result was expressed as the percentage inhibition of enzyme activity of the control (without PDE4 inhibitor). The enzyme was omitted for measurement of the basal control. IC50 values (IC50=concentration causing a half-maximal inhibition of control specific activity) were derived from dose response measurements with eight different concentrations (n=2; N=1-3).
Literature: N. Saldou et al., Comparison of recombinant human PDE4 isoforms: interaction with substrate and inhibitors, Cell. Signal. Vol. 10, No. 6, 427-440, 1998

T1 sequence (Q07343 whole entry): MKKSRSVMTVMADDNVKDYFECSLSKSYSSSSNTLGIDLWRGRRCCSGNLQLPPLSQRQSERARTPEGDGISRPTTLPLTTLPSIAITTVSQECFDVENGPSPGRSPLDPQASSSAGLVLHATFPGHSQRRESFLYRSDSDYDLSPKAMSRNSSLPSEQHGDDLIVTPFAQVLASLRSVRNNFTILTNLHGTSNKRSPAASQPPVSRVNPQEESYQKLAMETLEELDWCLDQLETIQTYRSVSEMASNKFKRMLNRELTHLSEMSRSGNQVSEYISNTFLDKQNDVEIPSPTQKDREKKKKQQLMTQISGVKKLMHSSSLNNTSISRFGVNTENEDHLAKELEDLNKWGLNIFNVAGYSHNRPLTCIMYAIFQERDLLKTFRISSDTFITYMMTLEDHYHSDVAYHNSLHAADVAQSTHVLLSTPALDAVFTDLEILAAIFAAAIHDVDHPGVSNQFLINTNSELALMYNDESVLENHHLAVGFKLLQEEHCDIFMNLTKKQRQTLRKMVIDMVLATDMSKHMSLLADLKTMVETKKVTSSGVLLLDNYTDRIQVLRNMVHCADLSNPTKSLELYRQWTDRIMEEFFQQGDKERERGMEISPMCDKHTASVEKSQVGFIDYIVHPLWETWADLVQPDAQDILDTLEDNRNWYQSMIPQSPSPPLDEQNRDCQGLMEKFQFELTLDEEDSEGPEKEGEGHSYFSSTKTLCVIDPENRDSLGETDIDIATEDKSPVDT

SMILES | melting point [°C] | inhibition at 10 µM [1] [%] | inhibition at 1 µM [2] [%]
CN(CC(N)=O)C(=O)c1ccc2c(C3CC3)nn(-c3ncc(-c4cc([S+](C)[O-])ccc4F)cn3)c2c1 (centres unmarked) [Compound No. 57] | 274 to 277 | 120 | –
CCOc1ccc(F)c(-c2cnc(-n3nc(C)c4ccc(C(=O)N(C)CC(N)=O)cc43)nc2)c1 [Compound No. 60, N-(2-Amino-2-oxoethyl)-1-(5-(5-ethoxy-2-fluorophenyl)pyrimidin-2-yl)-N,3-dimethyl-1H-indazole-6-carboxamide] | 254 to 257 | 100 | –
Cc1nn(-c2ncc(-c3cc(C(C)O)ccc3F)cn2)c2cc(C(=O)N(C)CC(N)=O)ccc12 (centres unmarked) [Compound No. 61, N-(2-Amino-2-oxoethyl)-1-(5-(2-fluoro-5-(1-hydroxyethyl)phenyl)pyrimidin-2-yl)-N,3-dimethyl-1H-indazole-6-carboxamide] | 191 to 195 | 103 | –
C[S+]([O-])c1ccc(F)c(-c2cnc(-n3nc(C4CC4)c4ccc(C(=O)N5CCOCC5)cc43)nc2)c1 (centres unmarked) [Compound No. 56, (3-Cyclopropyl-1-(5-(2-fluoro-5-(methylsulfinyl)phenyl)pyrimidin-2-yl)-1H-indazol-6-yl)(morpholino)methanone] | 243 to 247 | 106 | –
O=C1CN(C(=O)c2ccc3c(C4CC4)nn(-c4ncc(-c5ccccc5F)cn4)c3c2)CCN1 [Compound No. 16, 4-(3-Cyclopropyl-1-(5-(2-fluorophenyl)pyrimidin-2-yl)-1H-indazole-6-carbonyl)piperazin-2-one] | 252 to 255 | – | 99
CCOc1ccc(F)c(-c2cnc(-n3nc(C4CC4)c4ccc(C(=O)N5CCOCC5)cc43)nc2)c1 [Compound No. 51, (3-Cyclopropyl-1-(5-(5-ethoxy-2-fluorophenyl)pyrimidin-2-yl)-1H-indazol-6-yl)(morpholino)methanone] | 155 to 158 | 103 | –
CC(O)c1ccc(F)c(-c2cnc(-n3nc(C4CC4)c4ccc(C(=O)N5CCOCC5)cc43)nc2)c1 (centres unmarked) [Compound No. 52, (3-Cyclopropyl-1-(5-(2-fluoro-5-(1-hydroxyethyl)phenyl)pyrimidin-2-yl)-1H-indazol-6-yl)(morpholino)methanone] | 256 to 260 | 117 | –
O=C(c1cc2c(cn1)c(C1CC1)nn2-c1ncc(-c2ccccc2F)cn1)N1CCOCC1 [Compound No. 29, (3-Cyclopropyl-1-(5-(2-fluorophenyl)pyrimidin-2-yl)-1H-pyrazolo[4,3-c]pyridin-6-yl)(morpholino)methanone] | 232 to 235 | – | 73
O=C(c1ccc2c(C3CC3)nn(-c3ncc(-c4ccccn4)cn3)c2c1)N1CCOCC1 [Compound No. 30, (3-Cyclopropyl-1-(5-(pyridin-2-yl)pyrimidin-2-yl)-1H-indazol-6-yl)(morpholino)methanone] | 260 to 263 | – | 96
CN(CC(N)=O)C(=O)c1ccc2c(C3CC3)nn(-c3ncc(-c4cc(C(C)(C)O)ccc4F)cn3)c2c1 [Compound No. 55, N-(2-Amino-2-oxoethyl)-3-cyclopropyl-1-(5-(2-fluoro-5-(2-hydroxypropan-2-yl)phenyl)pyrimidin-2-yl)-N-methyl-1H-indazole-6-carboxamide] | 177 to 180 | 115 | –
CN(CC(N)=O)C(=O)c1ccc2c(C3CC3)nn(-c3ncc(-c4cc(S(C)(=O)=O)ccc4F)cn3)c2c1 [Compound No. 59, N-(2-Amino-2-oxoethyl)-3-cyclopropyl-1-(5-(2-fluoro-5-(methylsulfonyl)phenyl)pyrimidin-2-yl)-N-methyl-1H-indazole-6-carboxamide] | 311 to 315 | 96 | –
CCOc1ccc(F)c(-c2cnc(-n3nc(C4CC4)c4ccc(C(=O)N(C)CC(N)=O)cc43)nc2)c1 [Compound No. 50, N-(2-Amino-2-oxoethyl)-3-cyclopropyl-1-(5-(5-ethoxy-2-fluorophenyl)pyrimidin-2-yl)-N-methyl-1H-indazole-6-carboxamide] | 228 to 231 | 95 | –
Cc1nn(-c2ncc(-c3cc([S+](C)[O-])ccc3F)cn2)c2cc(C(=O)N(C)CC(N)=O)ccc12 (centres unmarked) [Compound No. 64, N-(2-Amino-2-oxoethyl)-1-(5-(2-fluoro-5-(methylsulfinyl)phenyl)pyrimidin-2-yl)-N,3-dimethyl-1H-indazole-6-carboxamide] | 164 to 168 | 42 | –
Cc1nn(-c2ncc(-c3cc(S(C)(=O)=O)ccc3F)cn2)c2cc(C(=O)N(C)CC(N)=O)ccc12 [Compound No. 63, N-(2-Amino-2-oxoethyl)-1-(5-(2-fluoro-5-(methylsulfonyl)phenyl)pyrimidin-2-yl)-N,3-dimethyl-1H-indazole-6-carboxamide] | 255 to 259 | 75 | –
CC(C)(O)c1nn(-c2ncc(-c3ccccc3F)cn2)c2cc(C(=O)N3CCOCC3)ccc12 [Compound No. 31] | 235 to 237 | – | 102
CC(O)c1ccc(F)c(-c2cnc(-n3nc(C4CC4)c4ccc(C(=O)N(C)CC(N)=O)cc43)nc2)c1 (centres unmarked) [Compound No. 53, N-(2-Amino-2-oxoethyl)-3-cyclopropyl-1-(5-(2-fluoro-5-(1-hydroxyethyl)phenyl)pyrimidin-2-yl)-N-methyl-1H-indazole-6-carboxamide] | 248 to 252 | 101 | –
O=C(c1ccc2c(C3CC3)nn(-c3ncc(-c4ccccc4)cn3)c2c1)N1CCOCC1 [Compound No. 14, (3-Cyclopropyl-1-(5-phenylpyrimidin-2-yl)-1H-indazol-6-yl)(morpholino)-methanone] | 218 to 222 | – | 92
O=C1CN(C(=O)c2ccc3c(C4CC4)nn(-c4ncc(-c5ccccc5)cn4)c3c2)CCN1 [Compound No. 15, 4-(3-Cyclopropyl-1-(5-phenylpyrimidin-2-yl)-1H-indazole-6-carbonyl)piperazin-2-one] | 175 to 179 | – | 96
Cc1nn(-c2ncc(-c3cc(C(C)(C)O)ccc3F)cn2)c2cc(C(=O)N(C)CC(N)=O)ccc12 [Compound No. 62, N-(2-Amino-2-oxoethyl)-1-(5-(2-fluoro-5-(2-hydroxypropan-2-yl)phenyl)pyrimidin-2-yl)-N,3-dimethyl-1H-indazole-6-carboxamide] | 187 to 190 | 108 | –
CS(=O)(=O)c1ccc(F)c(-c2cnc(-n3nc(C4CC4)c4ccc(C(=O)N5CCOCC5)cc43)nc2)c1 [Compound No. 58, (3-Cyclopropyl-1-(5-(2-fluoro-5-(methylsulfonyl)phenyl)pyrimidin-2-yl)-1H-indazol-6-yl)(morpholino)methanone] | 276 to 280 | 105 | –
CC(C)(O)c1ccc(F)c(-c2cnc(-n3nc(C4CC4)c4ccc(C(=O)N5CCOCC5)cc43)nc2)c1 [Compound No. 54, (3-Cyclopropyl-1-(5-(2-fluoro-5-(2-hydroxypropan-2-yl)phenyl)pyrimidin-2-yl)-1H-indazol-6-yl)(morpholino)methanone] | 211 to 215 | 107 | –
CN1CCN(C(=O)c2ccc3c(C4CC4)nn(-c4ncc(-c5ccccc5F)cn4)c3c2)CC1=O [Compound No. 17, 4-(3-Cyclopropyl-1-(5-(2-fluorophenyl)pyrimidin-2-yl)-1H-indazole-6-carbonyl)-1-methylpiperazin-2-one] | 217 to 221 | – | 95
